The values below come from patent publication US20130189358A1, “SAXAGLIPTIN PHARMACEUTICAL FORMULATIONS” (priority 2012, published 2013).

The data set can be described thus: Impurity levels 30 days after tablet manufacture (storage stability). The format is physicochemical. To be noted: 30 days after manufacture, storage at RT (15-29° C.) and NMT 67% RH; % wt impurity. Here is the method:
As used herein, unless indicated otherwise, the amount of saxagliptin cyclic amidine in the dosage forms following manufacture of the pharmaceutical dosage forms are measured following storage for 30 days at room temperature conditions (typically manufacture (following storage at room temperature (i.e. typically a temperature of between 15-29° C.), and at a relative humidity of not more than 67%.
Measurements of % wt impurities herein (oxamidine, cyclic amidine, etc) are taken 30 days after manufacture of the formulations [storage at ambient conditions, i.e. room temperature (RT) of between 15-29° C. and not more than 67% relative humidity (RH)].
Formulation #1 Excluding Cosmetic Coating—Analytical Data (30 Days after Tablet Manufacture)

Structures are written as SMILES. Where a name gives a salt, the structure may show the parent alone.

In the case of `N#C[C@@H]1C[C@@H]2C[C@@H]2N1C(=O)[C@@H](N)C12CC3CC(CC(O)(C3)C1)C2` [Saxagliptin HCl, (1S,3S,5S)-2-((2S)-2-amino-2-(3-hydroxyadamantan-1-yl)-acetyl)-2-azabicyclo[3.1.0]hexane-3-carbonitrile], the “Cyclic Amidine level” value was <0.03%, the “Greatest Unknown Impurity level” value came out at 0.19%, the Oxamidine level is <0.03% and the “Total Impurity level” value is 0.23%.
